Data as given in patent US20130205438A1, “DOUBLING OF CHROMOSOMES IN HAPLOID EMBRYOS” (PIONEER HI BRED INTERNATIONAL INC, priority 2005, published 2013).
Marks after values point to notes of the source that are not given here.

Legend:
Assay type in all cases: in vivo
[1] = tested on: haploid embryos of maize plant "A"; test: Chromosome doubling of isolated haploid immature maize embryos on colchicine medium (Example 2); details: 0.05% colchicine, 24 hours
Experimental: A diploid maize plant, “A”, was pollinated with a haploid inducer line containing GFP. Immature embryos were isolated at 12 days after pollination and the embryo size is ranged from 1.9-2.0 mm long. The diploid embryos, GFP expressing embryos, were discarded. The haploid embryos, based on the absence of the GFP marker expression, were cultured on a medium comprising MS salts, MS vitamins, thiamine, asparagine, BAP, sucrose, gelrite, and 0.05% colchicine with scutellum side up for 24 hours at 26 C in the dark. […] This medium comprised MS salts, MS vitamins, myo-inositol, sucrose, and gelrite. The plantlets germinated from these treated embryos, were transferred to a light culture room at 26 C for another 2 -3 weeks until healthy plantlets with good roots developed. These plantlets were transferred to soil and grown in a regular greenhouse to maturation. The plants were self-pollinated and the mature seeds will be harvested. The harvested seed from each plant will be grown as an ear-row and the plants will examined for uniformity of the plant morphology within each ear-row.

[2] = tested on: immature embryos of hybrid maize plants pollinated with maternal-haploid-inducing line; test: Testing different hybrids and timing of doubling agent (Example 9)
Experimental: A maternal-haploid-inducing maize line was used to pollinate 4 different hybrid plants. The immature embryos derived from these crosses were isolated and placed directly on embryo rescue medium containing 5 uM pronamide. Embryos were kept on the pronamide medium for approximately 36 or 48 hours before being transferred to new media without the doubling agent.
The plantlets germinated from these treated embryos were then transferred into tubes until healthy plantlets with good roofs developed. These plantlets were then transferred to soil and grown in a regular greenhouse to maturation. The plants were self-pollinated and the mature seeds were harvested.

[3] = tested on: haploid embryos of maize lines "B" and "C"; test: Chromosome doubling of isolated haploid immature maize embryos on pronamide medium (Example 3); details: 6 uM pronamide, 48 hours
Experimental: Two different diploid maize lines, “B” and “C” were pollinated with a haploid inducer line, containing homozygousGFP. Immature embryos were isolated at 11 days after pollination and embryo size ranged from 1.5-1.6 mm in length. The diploid embryos, embryos showing GFP expression, were discarded. The haploid embryos, embryos not expressing GFP, were cultured on a modified MS medium containing 6 uM pronamide with scutellum side up for 48 hours at 26 C in dark. Alter approximately 48 hours the embryos were transferred to a modified MS medium without any doubling agent. Embryos were placed with scutellum side down for 6-10 days at 26 C in the dark. The plantlets germinated torn these treated embryos were then moved into a light culture room at 28 C for another 3 weeks till healthy plantlets with good roots developed. These plantlets were then transferred to soil and grown in a regular greenhouse to maturation. The plants were self pollinated and the mature seeds will be harvested. The harvested seed will be planted as an ear-row. The plants within a row will be examined for uniformity of the plant morphology.

[4] = tested on: ears of hybrid maize plants pollinated by haploid inducer plants; test: Immature ear treatment for haploid doubling, ear/stalk in liquid medium with Pronamide (Example 6); details: 5 uM Pronamide, 0.5% DMSO, one day
Excerpt: Hybrid maize plants were pollinated by haploid inducer plants. The ears with part of the stalks attached were harvested from the hybrid plants 4-6 days after pollination (embryo length less than 0.4 mm). The stalks were about 4-8 inches long on each side of where the ears were attached. The ears and the attached stalks are surface sterilized with 70% ethanol or 5% Chlorox. The lower ends of the stalks containing the ears were emerged into liquid medium containing MS medium, MS vitamins, sucrose, etc and 5 uM Pronamide, 0.5% DM SO for one day at 26 C. Then the ears still contained an the stalks were moved to a fresh medium containing MS medium, MS vitamins, sucrose etc. without doubling agent to allow the embryos and kernels to develop. The embryos within the ear can be isolated at any time after doubling. Embryo rescue can then be used to germinate immature embryos into plants. The germinated plants were grown to examine fertility.

[5] = Ear 1, ear/stalk harvest 6 days after pollination
[6] = Ear 2, ear/stalk harvest 6 days after pollination
[7] = Ear 3, ear/stalk harvest 5 days after pollination
[8] = Ear 4, ear/stalk harvest 4 days after pollination

## COc1cc2c(c(OC)c1OC)-c1ccc(OC)c(=O)cc1[C@@H](NC(C)=O)CC2 [colchicine, (S)-N-(5,6,7,9-tetrahydro-1,2,3,10-tetramethoxy-9-oxobenzo (a)heptalen-7-yl) acetamide]
[1]; Ear 1, 3 haploid embryos
  Fully Fertile Plants: 2
[1]; Ear 2, 7 haploid embryos
  Fully Fertile Plants: 4*
[1]; Ear 3, 9 haploid embryos
  Fully Fertile Plants: 8
[1]; Sum of 3 ears
  Fully Fertile Plants, percent of plantlets to greenhouse: (93.3%)
  Plantlets Germinated, percent of haploid embryos: (84.2%)
[1]; Sum of 3 ears, 19 haploid embryos
  Fully Fertile Plants: 14

## C#CC(C)(C)NC(=O)c1cc(Cl)cc(Cl)c1 [pronamide, 3,5-dichloro-N-(1,1-dimethyl-2-propynyl)benzamide]
[2]; 5 uM Pronamide 36 hours, Hybrid 1, 11 days after pollination, 100 embryos excised, embryo size 2.5 mm
  # of Double Haploid Plants with Ears: 1
[2]; 5 uM Pronamide 36 hours, Hybrid 1, 12 days after pollination, 300 embryos excised, embryo size 2.5 mm
  # of Double Haploid Plants with Ears: 1
[2]; 5 uM Pronamide 36 hours, Hybrid 2, 11 days after pollination, 176 embryos excised, embryo size 2.5-3 mm
  # of Double Haploid Plants with Ears: 4
[2]; 5 uM Pronamide 36 hours, Hybrid 3, 12 days after pollination, 279 embryos excised, embryo size 2.5-3 mm
  # of Double Haploid Plants with Ears: 13
[2]; 5 uM Pronamide 36 hours, Hybrid 4, 12 days after pollination, 322 embryos excised, embryo size 2.5 mm
  # of Double Haploid Plants with Ears: 2
[2]; 5 uM Pronamide 48 hours, Hybrid 3, 10 days after pollination, 236 embryos excised, embryo size 2 mm
  # of Double Haploid Plants with Ears: 6
[2]; 5 uM Pronamide 48 hours, Hybrid 4, 10 days after pollination, 144 embryos excised, embryo size 2 mm
  # of Double Haploid Plants with Ears: 3
[2]; 5 uM pronamide 36 or 48 hours, sample of plants, 120 molecular markers
  Homozygosity of progeny of double haploid plants: confirmed for homozygosity
[3]; Line B, 11 haploid embryos
  Fully Fertile Plant: 2*
[3]; Line C, 4 haploid embryos
  Fully Fertile Plant: 3
[3]; Sum of lines B and C
  Fully Fertile Plant, percent of plantlets to greenhouse: (83.3%)
  Plantlet Germinated, percent of haploid embryos: (53.3%)
[3]; Sum of lines B and C, 15 haploid embryos
  Fully Fertile Plant: 5
[4]; [5]
  % of plants with fertile tassel: 67%
  Number of plants with fertile tassel: 16
  Number of plants with sterile tassel: 8
[4]; [6]
  % of plants with fertile tassel: 94%
  Number of plants with fertile tassel: 30
  Number of plants with sterile tassel: 2
[4]; [7]
  % of plants with fertile tassel: 70%
  Number of plants with fertile tassel: 14
  Number of plants with sterile tassel: 6
[4]; [8]
  % of plants with fertile tassel: 95%
  Number of plants with fertile tassel: 19
  Number of plants with sterile tassel: 1
[4]; Sum of 4 ears
  % of plants with fertile tassel: 82%
  Number of plants with fertile tassel: 79
  Number of plants with sterile tassel: 17
